Data reported in publication PMC5218480 (PLoS ONE, 2017).

System: MV-4-11 cells
Assay: Gene expression microarray analysis (Affymetrix PrimeView) and GSEA
Format: cell-based, human
Set-up: RFU PODN (11730768_x_at) / Fold change /veh PODN (11730768_x_at) / RFU LINC00158 (11744669_a_at) / Fold change /veh LINC00158 (11744669_a_at) / RFU DUSP10 (11751237_a_at) / Fold change /veh DUSP10 (11751237_a_at) / RFU ID3 (11757404_x_at) / Fold change /veh ID3 (11757404_x_at) / RFU PLEKHG5 (11737974_s_at) / Fold change /veh PLEKHG5 (11737974_s_at) / RFU LRRC4B (11730491_at) / Fold change /veh LRRC4B (11730491_at) / RFU GIMAP4 (11747438_a_at) / Fold change /veh GIMAP4 (11747438_a_at) / RFU KRT8 (11758183_x_at) / Fold change /veh KRT8 (11758183_x_at) / RFU CNN1 (11734310_a_at) / Fold change /veh CNN1 (11734310_a_at) / RFU VPS37D (11726825_at) / Fold change /veh VPS37D (11726825_at) / RFU C10orf10 (11716522_x_at) / Fold change /veh C10orf10 (11716522_x_at) / RFU KIR2DL2 /// KIR2DL4 /// KIR2DL5A /// KIR2DL5B /// KIR2DS1 /// KIR2DS2 /// KIR2DS3 /// KIR2DS4 /// KIR3DL3 /// KIR3DL3 /// KIR3DS1 (11738374_at) / Fold change /veh KIR2DL2 /// KIR2DL4 /// KIR2DL5A /// KIR2DL5B /// KIR2DS1 /// KIR2DS2 /// KIR2DS3 /// KIR2DS4 /// KIR3DL3 /// KIR3DL3 /// KIR3DS1 (11738374_at) / RFU C1QL1 (11718748_at) / Fold change /veh C1QL1 (11718748_at) / RFU TMPRSS4 (11747572_a_at) / Fold change /veh TMPRSS4 (11747572_a_at) / RFU HAMP (11756126_x_at) / Fold change /veh HAMP (11756126_x_at) / RFU RNFT2 (11725882_a_at) / Fold change /veh RNFT2 (11725882_a_at) / RFU NR4A2 (11747474_a_at) / Fold change /veh NR4A2 (11747474_a_at) / RFU ABCC12 (11746883_a_at) / Fold change /veh ABCC12 (11746883_a_at) / RFU TMEM136 (11760407_x_at) / Fold change /veh TMEM136 (11760407_x_at) / RFU CLDN22 /// WWC2 (11732394_at) / Fold change /veh CLDN22 /// WWC2 (11732394_at) / RFU HLA-DPB1 (11760878_x_at) / Fold change /veh HLA-DPB1 (11760878_x_at) / RFU SPINT1 (11716480_a_at) / Fold change /veh SPINT1 (11716480_a_at) / RFU GAP43 (11754022_s_at) / Fold change /veh GAP43 (11754022_s_at) / RFU A4GNT (11735810_at) / Fold change /veh A4GNT (11735810_at) / RFU PRB3 (11715151_x_at) / Fold change /veh PRB3 (11715151_x_at) / RFU TUBB4B (11761932_at) / Fold change /veh TUBB4B (11761932_at) / RFU CAPN14 (11732068_a_at) / Fold change /veh CAPN14 (11732068_a_at) / RFU TMCC2 (11721928_a_at) / Fold change /veh TMCC2 (11721928_a_at) / RFU IRGQ (11745062_a_at) / Fold change /veh IRGQ (11745062_a_at) / RFU FAM174B (11720279_a_at) / Fold change /veh FAM174B (11720279_a_at) / RFU TMPRSS4 (11748680_a_at) / Fold change /veh TMPRSS4 (11748680_a_at) / RFU FAM212B (11763350_a_at) / Fold change /veh FAM212B (11763350_a_at) / RFU PLEKHG5 (11743358_a_at) / Fold change /veh PLEKHG5 (11743358_a_at) / RFU ZSCAN30 (11745921_a_at) / Fold change /veh ZSCAN30 (11745921_a_at) / RFU CMKLR1 (11741424_a_at) / Fold change /veh CMKLR1 (11741424_a_at) / RFU LOC101060620 /// MAPK8IP1 (11723275_at) / Fold change /veh LOC101060620 /// MAPK8IP1 (11723275_at) / RFU SPTSSB (11747773_x_at) / Fold change /veh SPTSSB (11747773_x_at) / RFU PRSS12 (11739890_at) / Fold change /veh PRSS12 (11739890_at) / RFU BIN1 (11741810_x_at) / Fold change /veh BIN1 (11741810_x_at) / RFU WNT11 (11732464_a_at) / Fold change /veh WNT11 (11732464_a_at) / RFU C10orf10 (11716521_a_at) / Fold change /veh C10orf10 (11716521_a_at) / RFU C5orf56 (11738089_at) / Fold change /veh C5orf56 (11738089_at) / RFU CYB561 (11721691_x_at) / Fold change /veh CYB561 (11721691_x_at) / RFU ANKRD19P (11752326_a_at) / Fold change /veh ANKRD19P (11752326_a_at) / RFU OR2T12 /// OR2T33 /// OR2T8 (11738714_s_at) / Fold change /veh OR2T12 /// OR2T33 /// OR2T8 (11738714_s_at) / RFU VCAN (11748164_a_at) / Fold change /veh VCAN (11748164_a_at) / RFU JSRP1 (11732532_at) / Fold change /veh JSRP1 (11732532_at) / RFU KRTAP10-11 (11738290_x_at) / Fold change /veh KRTAP10-11 (11738290_x_at) / RFU MYO3A (11730013_a_at) / Fold change /veh MYO3A (11730013_a_at) / RFU EBF3 (11725865_a_at) / Fold change /veh EBF3 (11725865_a_at) / RFU CAMK2N1 (11719241_x_at) / Fold change /veh CAMK2N1 (11719241_x_at) / RFU C5orf56 (11738088_a_at) / Fold change /veh C5orf56 (11738088_a_at) / RFU OLFML3 (11715873_a_at) / Fold change /veh OLFML3 (11715873_a_at) / RFU LOC100653217 /// NTM (11731650_a_at) / Fold change /veh LOC100653217 /// NTM (11731650_a_at) / RFU MAPK11 (11762145_a_at) / Fold change /veh MAPK11 (11762145_a_at) / RFU FIZ1 (11724087_x_at) / Fold change /veh FIZ1 (11724087_x_at) / RFU OASL (11726364_x_at) / Fold change /veh OASL (11726364_x_at) / RFU SOX15 (11748057_x_at) / Fold change /veh SOX15 (11748057_x_at) / RFU CD79A (11719716_a_at) / Fold change /veh CD79A (11719716_a_at) / RFU HIST1H1D (11736915_at) / Fold change /veh HIST1H1D (11736915_at) / RFU CASKIN2 (11723855_a_at) / Fold change /veh CASKIN2 (11723855_a_at) / RFU LOC730098 (11760151_x_at) / Fold change /veh LOC730098 (11760151_x_at) / RFU OR4N2 (11742367_at) / Fold change /veh OR4N2 (11742367_at) / RFU PRRT2 (11749266_a_at) / Fold change /veh PRRT2 (11749266_a_at) / RFU SNX32 (11753110_a_at) / Fold change /veh SNX32 (11753110_a_at) / RFU CDHR5 (11726645_a_at) / Fold change /veh CDHR5 (11726645_a_at) / RFU RCAN1 (11760418_a_at) / Fold change /veh RCAN1 (11760418_a_at) / RFU FAM167A (11723789_a_at) / Fold change /veh FAM167A (11723789_a_at) / RFU FAM26E (11764081_at) / Fold change /veh FAM26E (11764081_at) / RFU ISYNA1 (11749810_s_at) / Fold change /veh ISYNA1 (11749810_s_at) / RFU ACY1 (11761880_at) / Fold change /veh ACY1 (11761880_at) / RFU 11764098_at / Fold change /veh 11764098_at / RFU SAMD14 (11745864_x_at) / Fold change /veh SAMD14 (11745864_x_at) / RFU NPB (11741838_a_at) / Fold change /veh NPB (11741838_a_at) / RFU TMPRSS6 (11731388_a_at) / Fold change /veh TMPRSS6 (11731388_a_at) / RFU KRTAP10-2 (11738614_at) / Fold change /veh KRTAP10-2 (11738614_at) / RFU ARHGAP8 /// PRR5-ARHGAP8 (11727945_x_at) / Fold change /veh ARHGAP8 /// PRR5-ARHGAP8 (11727945_x_at) / RFU KRTAP5-7 /// NADSYN1 (11734609_at) / Fold change /veh KRTAP5-7 /// NADSYN1 (11734609_at) / RFU RASL12 (11751679_a_at) / Fold change /veh RASL12 (11751679_a_at) / RFU CDKN2B (11736163_a_at) / Fold change /veh CDKN2B (11736163_a_at) / RFU PRF1 (11729649_at) / Fold change /veh PRF1 (11729649_at) / RFU, ZNF638 /// ZNF638-IT1 / Fold change vs veh, ZNF638 /// ZNF638-IT1 / RFU, PANK3 / Fold change vs veh, PANK3 / RFU, SH3YL1 / Fold change vs veh, SH3YL1 / RFU, ZEB2 / Fold change vs veh, ZEB2 / RFU, NRIP1 / Fold change vs veh, NRIP1 / RFU, PTTG1IP / Fold change vs veh, PTTG1IP / RFU, CAPN2 / Fold change vs veh, CAPN2 / RFU, MED14 / Fold change vs veh, MED14 / RFU, SNORA58 / Fold change vs veh, SNORA58 / RFU, C1orf63 / Fold change vs veh, C1orf63 / RFU, LRRFIP1 / Fold change vs veh, LRRFIP1 / RFU, NDUFAF7 / Fold change vs veh, NDUFAF7 / RFU, SLC12A2 / Fold change vs veh, SLC12A2 / RFU, IBTK / Fold change vs veh, IBTK / RFU, ESF1 / Fold change vs veh, ESF1 / Fold change vs veh, TMEM50B / RFU, TAOK1 / Fold change vs veh, TAOK1 / RFU, ACBD3 / Fold change vs veh, ACBD3 / RFU, TMA16 / Fold change vs veh, TMA16 / RFU, RWDD3 / Fold change vs veh, RWDD3 / RFU, BCAT1 / Fold change vs veh, BCAT1 / RFU, EDEM3 / Fold change vs veh, EDEM3 / RFU, TMEM33 / Fold change vs veh, TMEM33 / RFU, WDR75 / Fold change vs veh, WDR75 / RFU, AHCTF1 / Fold change vs veh, AHCTF1 / RFU, TFRC / Fold change vs veh, TFRC / RFU, ZDHHC17 / Fold change vs veh, ZDHHC17 / RFU, NOM1 / Fold change vs veh, NOM1 / RFU, ARL8B / Fold change vs veh, ARL8B / RFU, ZBTB11 / Fold change vs veh, ZBTB11 / RFU, TAMM41 / Fold change vs veh, TAMM41 / RFU, KIAA1704 /// LOC100996395 / Fold change vs veh, KIAA1704 /// LOC100996395 / RFU, ING1 / Fold change vs veh, ING1 / RFU, TRMT61B / Fold change vs veh, TRMT61B / RFU, FUBP3 / Fold change vs veh, FUBP3 / RFU, TP53 / Fold change vs veh, TP53 / RFU, TNKS2 / Fold change vs veh, TNKS2 / RFU, ZFP14 / Fold change vs veh, ZFP14 / RFU, ACTR2 / Fold change vs veh, ACTR2 / RFU, PPP3R1 / Fold change vs veh, PPP3R1 / RFU, PIK3R1 / Fold change vs veh, PIK3R1 / RFU, HNRNPA1 / Fold change vs veh, HNRNPA1 / RFU, RNF170 / Fold change vs veh, RNF170 / RFU, ZNF28 / Fold change vs veh, ZNF28 / RFU, RNGTT / Fold change vs veh, RNGTT / RFU, OGT / Fold change vs veh, OGT / RFU, BRD1 / Fold change vs veh, BRD1 / RFU, MARS / Fold change vs veh, MARS / RFU, ZNF655 / Fold change vs veh, ZNF655 / RFU, FAHD1 / Fold change vs veh, FAHD1 / RFU, BDP1 / Fold change vs veh, BDP1 / RFU, LRRCC1 / Fold change vs veh, LRRCC1 / RFU, ARID1A / Fold change vs veh, ARID1A / RFU, ZNF146 / Fold change vs veh, ZNF146 / RFU, ZNF330 / Fold change vs veh, ZNF330 / RFU, GPN3 / Fold change vs veh, GPN3 / RFU, C9orf123 / Fold change vs veh, C9orf123 / RFU, N4BP2L2 / Fold change vs veh, N4BP2L2 / RFU, ARFIP1 / Fold change vs veh, ARFIP1 / RFU, FAM179B / Fold change vs veh, FAM179B / RFU, BCL10 / Fold change vs veh, BCL10 / RFU, UHRF1BP1L / Fold change vs veh, UHRF1BP1L / RFU, BET1 / Fold change vs veh, BET1 / RFU, CNOT2 / Fold change vs veh, CNOT2 / RFU, ZNF268 / Fold change vs veh, ZNF268 / Fold change vs veh, ZNF507 / RFU, DGCR2 / Fold change vs veh, DGCR2 / RFU, WDSUB1 / Fold change vs veh, WDSUB1 / Fold change vs veh, HSP90B1 /// MIR3652 / RFU, ADSS / Fold change vs veh, ADSS / RFU, GK / Fold change vs veh, GK / RFU, ZNF148 / Fold change vs veh, ZNF148 / RFU, TAF9 / Fold change vs veh, TAF9 / RFU, SLC1A5 / Fold change vs veh, SLC1A5 / RFU, SLMO2 / Fold change vs veh, SLMO2 / RFU, ABCC4 / Fold change vs veh, ABCC4 / RFU, LOC101060439 /// RAP1B / Fold change vs veh, LOC101060439 /// RAP1B / RFU, RFX7 / Fold change vs veh, RFX7 / RFU, GTPBP10 / Fold change vs veh, GTPBP10 / RFU, CNEP1R1 / Fold change vs veh, CNEP1R1 / RFU, BIVM-ERCC5 /// ERCC5 / Fold change vs veh, BIVM-ERCC5 /// ERCC5 / RFU, ILF3 / Fold change vs veh, ILF3 / RFU 11762660_at / Fold change /veh 11762660_at / RFU VCAN (11757783_s_at) / Fold change /veh VCAN (11757783_s_at) / RFU DDX43 (11728927_at) / Fold change /veh DDX43 (11728927_at) / RFU KRT8 (11758188_x_at) / Fold change /veh KRT8 (11758188_x_at) / RFU NKD1 (11759106_at) / Fold change /veh NKD1 (11759106_at) / RFU SRD5A1 (11742802_a_at) / Fold change /veh SRD5A1 (11742802_a_at) / RFU TPSAB1 /// TPSB2 (11721975_s_at) / Fold change /veh TPSAB1 /// TPSB2 (11721975_s_at) / RFU GSTM3 (11746129_a_at) / Fold change /veh GSTM3 (11746129_a_at) / RFU IL23R (11737362_x_at) / Fold change /veh IL23R (11737362_x_at) / RFU TMEM51 (11727254_a_at) / Fold change /veh TMEM51 (11727254_a_at) / RFU PIWIL2 (11732686_x_at) / Fold change /veh PIWIL2 (11732686_x_at) / RFU ORM1 (11744905_x_at) / Fold change /veh ORM1 (11744905_x_at) / RFU CCDC152 (11743942_at) / Fold change /veh CCDC152 (11743942_at) / RFU ECM1 (11717891_a_at) / Fold change /veh ECM1 (11717891_a_at) / RFU IL23R (11748794_a_at) / Fold change /veh IL23R (11748794_a_at) / RFU TNFAIP8L3 (11732012_x_at) / Fold change /veh TNFAIP8L3 (11732012_x_at) / RFU MBOAT4 (11741988_at) / Fold change /veh MBOAT4 (11741988_at) / RFU 11764193_at / Fold change /veh 11764193_at / RFU TMEM53 (11763286_at) / Fold change /veh TMEM53 (11763286_at) / RFU MAGEB2 (11727129_at) / Fold change /veh MAGEB2 (11727129_at) / RFU TMEM200A (11744735_a_at) / Fold change /veh TMEM200A (11744735_a_at) / RFU CCDC152 (11751479_a_at) / Fold change /veh CCDC152 (11751479_a_at) / RFU FAM211A (11726209_a_at) / Fold change /veh FAM211A (11726209_a_at) / RFU RGS16 (11746705_a_at) / Fold change /veh RGS16 (11746705_a_at) / RFU VCAN (11755009_s_at) / Fold change /veh VCAN (11755009_s_at) / RFU RHOB (11743442_s_at) / Fold change /veh RHOB (11743442_s_at) / RFU RGS16 (11720943_a_at) / Fold change /veh RGS16 (11720943_a_at) / RFU RGS16 (11720944_at) / Fold change /veh RGS16 (11720944_at) / RFU, VPS4B / Fold change vs veh, VPS4B / RFU, CREB1 / Fold change vs veh, CREB1 / RFU, DNAJC13 / Fold change vs veh, DNAJC13 / RFU, GNAQ / Fold change vs veh, GNAQ / RFU, CDK5R1 / Fold change vs veh, CDK5R1 / RFU, ZRANB3 / Fold change vs veh, ZRANB3 / RFU, CUL4A / Fold change vs veh, CUL4A / RFU, CCNY / Fold change vs veh, CCNY / RFU, UFL1 / Fold change vs veh, UFL1 / RFU, COG3 / Fold change vs veh, COG3 / RFU, DIAPH2 / Fold change vs veh, DIAPH2 / RFU, SKA2 / Fold change vs veh, SKA2 / RFU, AFF3 / Fold change vs veh, AFF3 / RFU, LMF1 / Fold change vs veh, LMF1 / RFU, IPO11 / Fold change vs veh, IPO11 / RFU, DFFB / Fold change vs veh, DFFB / RFU, FOXP1 / Fold change vs veh, FOXP1 / RFU, CARD8 / Fold change vs veh, CARD8 / RFU, STRN3 / Fold change vs veh, STRN3 / RFU, ADK / Fold change vs veh, ADK / RFU, RASSF2 / Fold change vs veh, RASSF2 / RFU, WIPF1 / Fold change vs veh, WIPF1 / RFU, LARP1B / Fold change vs veh, LARP1B / RFU, RASA1 / Fold change vs veh, RASA1 / RFU, RB1 / Fold change vs veh, RB1 / RFU, PPFIA1 / Fold change vs veh, PPFIA1 / RFU, MAT2A / Fold change vs veh, MAT2A / RFU, CCT5 / Fold change vs veh, CCT5 / RFU, WDR92 / Fold change vs veh, WDR92 / RFU, CUX1 / Fold change vs veh, CUX1 / RFU, TTC7A / Fold change vs veh, TTC7A / RFU, TMEM135 / Fold change vs veh, TMEM135 / RFU, DEPTOR / Fold change vs veh, DEPTOR / RFU, CPM / Fold change vs veh, CPM / RFU, DNAJB6 / Fold change vs veh, DNAJB6 / RFU, CACNA2D3 / Fold change vs veh, CACNA2D3 / RFU, DTX4 / Fold change vs veh, DTX4 / RFU, TFCP2 / Fold change vs veh, TFCP2 / RFU, GMCL1 /// GMCL1P1 / Fold change vs veh, GMCL1 /// GMCL1P1 / RFU, AEBP2 / Fold change vs veh, AEBP2 / RFU, SNHG1 /// SNORD22 /// SNORD25 /// SNORD26 /// SNORD27 /// SNORD28 /// SNORD29 /// SNORD31 / Fold change vs veh, SNHG1 /// SNORD22 /// SNORD25 /// SNORD26 /// SNORD27 /// SNORD28 /// SNORD29 /// SNORD31 / Fold change (Aza/veh), C12orf56 (ProbeSet 11735607_a_at) / Fold change (ACY-1035/veh), C12orf56 (ProbeSet 11735607_a_at) / Fold change (Aza/veh), FGFR1OP (ProbeSet 11751329_s_at) / Fold change (ACY-1035/veh), FGFR1OP (ProbeSet 11751329_s_at) / Fold change (Aza/veh), VPS36 (ProbeSet 11739960_a_at) / Fold change (ACY-1035/veh), VPS36 (ProbeSet 11739960_a_at) / RFU SYPL1 (11715823_x_at) / Fold change /veh SYPL1 (11715823_x_at) / RFU IGFBP7 (11715501_s_at) / Fold change /veh IGFBP7 (11715501_s_at) / RFU REEP3 (11722064_at) / Fold change /veh REEP3 (11722064_at) / RFU IGLL1 (11728026_x_at) / Fold change /veh IGLL1 (11728026_x_at): dose or concentration left out as unconfirmed
Details: ProbeSet 11721969_s_at; LIST B

Nc1ccc(-c2cccs2)cc1NC(=O)c1ccc2c(c1)cc(C1CC1)n2CCN1CCOCC1 [ACY-1035]
Fold change vs veh, BDP1: 0.84
